Laboratory results from patent publication US12269816B2, “Benzothiophene compound, preparation method therefor and use thereof” (SICHUAN KELUN-BIOTECH BIOPHARMACEUTICAL CO., LTD., priority 2019, dated 2025).

Assays:
[1] = system: STING-mediated interferon (IFN) signal reporter gene in THP1-Blue™ ISG cells; assay: STING-mediated interferon (IFN) signal SEAP reporter gene assay in THP1-Blue ISG cells; assay type: cell-based, human; settings: for EC50: 16 h incubation, SEAP reporter read at OD620nm; for Emax (OD620nm): highest OD620nm value generated by stimulation of the compound, 16 h; for agonistic effect on the STING-mediated Interferon (IFN) signal pathway: result in words
Description: In this experiment, the activity of the SEAP (secreted embryonic alkaline phosphatase) reporter gene regulated by the IFN regulatory factor (interferon regulatory factor) was detected in the THP1-Blue™ ISG cells (InvivoGen) to evaluate the agonistic effect of the compounds to be tested on the STING-mediated IFN signal pathway at the cellular level.
The THP1-Blue™ ISG cells (InvivoGen) in the logarithmic phase were centrifuged, and resuspended in a cell culture solution to a density of 2×10^6 cells/ml. The cell suspension was inoculated in a 96-well cell culture plate (Corning) at 50 μL/well. The mother liquor of the compound to be tested was gradiently diluted with a cell culture solution to obtain a 2× working concentration diluted solution (control compounds 1 and 2 were diluted at a 3-fold gradient: 200, 66.67, 22.22, 7.41, 2.47, 0.82, 0.27 and 0 μM; compounds 1, 2, 4, 6, 8, and 23 were diluted at a 8-fold gradient: 60, 7.5, 0.94, 0.12, 0.015, 0.0018, 0.00023 and 0 μM; and compounds 3 and 5 were diluted at a 10-fold gradient: 10, 1, 0.1, 0.01, 0.001, 0.0001, 0.00001 and 0 μM). The 2× working concentration diluted solution of the compound was added into a 96-well plate (50 μl of the culture solution containing 2% DMSO was added into the negative control well) at 50 μL/well. The culture plate was then placed in a cell incubator, and incubated for 16 h. After the cell incubation, 10 μL of the cell culture supernatant was transferred to a 96-well plate, and a QUANTI-Blue (InvivoGen) solution was added at 90 μL/well. The cells were incubated at 37° C. for 3 h. The absorbance at 620 nm (OD620nm) was read with a microplate reader.
In the table, EC50 refers to the concentration of a compound when ODM620nm value generated by stimulation of the compound reaches half of Emax; and Emax refers to the highest OD620nm value generated by stimulation of the compound.

[2] = system: STING and its downstream proteins TBK1 and IRF3 in THP-1 cells; assay: Western blotting of phosphorylation of STING signal pathway proteins in human THP-1 cells; assay type: cell-based; settings: 3 hours, protein blotting, FIGS. 1-5, result in words
Description: In this experiment, the changes in the phosphorylation levels of STING and its downstream proteins TBK1 (TANK-binding kinase 1) and IRF3 (interferon regulatory factor 3) were detected by protein blotting to evaluate the agonistic effect of the test compounds on the STING signal pathway at the cellular level.
The THP-1 cells in the logarithmic phase were centrifuged, and resuspended in a cell culture solution to a density of […]. The cell suspension was inoculated into a 12-well cell culture plate (Corning) at 0.5 mL/well. The compound to be tested was diluted with a cell culture solution to 2× working solution concentration (control compounds 1 and 2: 60 μM; compounds 1 and 3: 0.6 μM, 6 μM, and 60 μM; compounds 2, 4, 6 and 8: 6 μM, 20 μM, and 60 μM). 0.5 mL of the diluted solution of the compound was added into a 12-well plate (500 μl of the culture solution containing 2% DMSO was added into the negative control well), and the plate was incubated in a cell incubator for 3 hours. After the incubation, the cells were collected by centrifugation, lysed with 60 μL cell lysis buffer (CST) for 30 minutes, and centrifuged at 12,000 rpm for 15 minutes. The supernatant was collected to determine the protein concentration, and then an appropriate amount of 5× protein loading buffer was added. The mixture was heated at 95° C. for 10 minutes to prepare a protein electrophoresis sample. Finally protein blotting was performed to detect the phosphorylation level of the corresponding protein. The primary antibodies used in the protein blotting were purchased from CST: STING (D2P2F) rabbit mAb, Phospho-STING (Ser366) rabbit mAb, Phospho-IRF3 (Ser396) (D601M) rabbit mAb, IRF3 (D83B9) rabbit mAb, TBK1/NAK (D1B4) rabbit mAb, Phospho-TBK1/NAK (Ser172) (D52C2) XP® rabbit mAb, and GAPDH (D16H11) rabbit mAb; and the secondary antibody horseradish peroxidase-conjugated goat anti-rabbit IgG (H+L) was purchased from Zsgb-bio.

[3] = system: STING pathway cytokine hIFN-β in human THP-1 cells; assay: ELISA of STING pathway cytokine hIFN-β expression in human THP-1 cells; assay type: cell-based; settings: 8 hours, ELISA; for EC50: hIFN-β expression; for Emax: highest expression of hIFN-β
Description: In this experiment, the expression of STING signal pathway cytokine hIFN-β was detected in THP1 cells (Nanjing Cobioer) by the ELISA method, so as to evaluate the agonistic effect of the compounds to be tested on the expression of STING pathway cytokine hIFN-β at the cellular level.
THP1 cells (Nanjing Cobioer) in the logarithmic phase were centrifuged, and resuspended in a cell culture solution to a density of 8×10^6 cells/ml. The cell suspension was inoculated into a 24-well cell culture plate (Corning) at 250 μL/well.
The mother liquor of the compound to be tested was diluted with a cell culture solution to obtain a 2× working concentration diluted solution (control compounds 1 and 2 were diluted at a 2-fold gradient: 200, 100, 50, 25, 12.5, 6.25, 3.125, 1.5625 and 0 μM; and compounds 4, 6, and 8 were diluted at a 3-fold gradient: 200, 66.67, 22.22, 7.41, 2.47, 0.82, 0.27, 0.091 and 0 μM). The 2× working concentration diluted solution of the compound was added into 24-well plate (250 μl of the culture solution containing 2% DMSO was added into the negative control well) at 250 μL/well. The culture plate was placed in a cell culture incubator, and incubated for 8 hours. After the cell incubation, the supernatant was collected by centrifugation at 300 g×5 min, and the hIFN-β content (pg/ml) in the cell culture supernatant was detected according to the operating instructions of the VeriKine Human […] ELISA kit from PBL (obtained by conversion of the […] absorbance-hIFN-β standard concentration standard curve and the OD450 nm absorbance value read by the microplate reader). […] was calculated through log(agonist) vs. response—Variable slope fitting by the Graphpad Prism software, and the experimental results are shown in Table 2.
In the table, EC50 refers to the concentration of a compound when the expression of hIFN-β generated by stimulation of the compound reaches half of Emax and Emax refers to the highest expression of hIFN-β generated by stimulation of the compound.

[4] = system: STING pathway cytokine mIFN-β in mouse Raw264.7 cells; assay: ELISA of STING pathway cytokine mIFN-β expression in mouse Raw264.7 cells; assay type: cell-based; settings: 6 h, ELISA; for Emax: highest expression of mIFN-β; for EC50: mIFN-β expression
Description: In this experiment, the expression of STING signal pathway cytokine mIFN-β was detected in Raw264.7 cells (Nanjing Cobioer) by the ELISA method, so as to evaluate the agonistic effect of the compound to be tested on the expression of STING pathway cytokine mIFN-β at the cellular level.
Raw264.7 cells (Nanjing Cobioer) in the logarithmic phase were centrifuged, and resuspended in a cell culture solution to a density of 1.6×10^6 cells/ml. The cell suspension was inoculated into a 24-well cell culture plate (Corning) at 250 μL/well. The mother liquor of the compound to be tested was gradiently diluted with a cell culture solution to obtain a 2× working concentration diluted solution (control compound 1 was diluted at a 3-fold gradient: 200, 66.67, 22.22, 7.41, 2.47, 0.82, 0.27 and 0 μM; control compound 2 was diluted at a 2-fold gradient: 200, 100, 50, 25, 12.5, 6.25, 3.125 and 0 μM; and compounds 4, 6 and 8 were diluted at a 4-fold gradient: 200, 50, 12.5, 3.13, 0.78, 0.20, 0.049 and 0 μM). The 2× working concentration diluted solution of the compound was added into a 24-well plate (250 μl of the culture solution containing 2% DMSO was added into the negative control well) at 250 μL/well. The culture plate was then placed in a cell incubator, and incubated for 6 h. After the cell incubation, the supernatant was collected by centrifugation at 300 g×5 min, and the mIFN-β content (pg/ml) in the cell culture supernatant was detected according to the operating instructions of the VeriKinem Mouse IFN Beta ELISA Kit from PBL (obtained by conversion of the OD450 nm absorbance-mIFN-β standard concentration standard curve and the OD450 nm absorbance value read by the microplate reader). EC50 was calculated through log(agonist) vs. response—Variable slope fitting by the Graphpad Prism software, and the experimental results are shown in Table 3.
In the table, EC50 refers to the concentration of a compound when the expression of mIFN-β generated by stimulation of the compound reaches half of Emax; and Emax refers to the highest expression of mIFN-β generated by stimulation of the compound.

[5] = target: T1, hSTING protein (Homo sapiens, UniProt Q86WV6); assay: Human STING binding kit (HTRF) competitive binding assay
T1 construct: purchased Cisbio
T1 sequence (Q86WV6 whole entry H232R): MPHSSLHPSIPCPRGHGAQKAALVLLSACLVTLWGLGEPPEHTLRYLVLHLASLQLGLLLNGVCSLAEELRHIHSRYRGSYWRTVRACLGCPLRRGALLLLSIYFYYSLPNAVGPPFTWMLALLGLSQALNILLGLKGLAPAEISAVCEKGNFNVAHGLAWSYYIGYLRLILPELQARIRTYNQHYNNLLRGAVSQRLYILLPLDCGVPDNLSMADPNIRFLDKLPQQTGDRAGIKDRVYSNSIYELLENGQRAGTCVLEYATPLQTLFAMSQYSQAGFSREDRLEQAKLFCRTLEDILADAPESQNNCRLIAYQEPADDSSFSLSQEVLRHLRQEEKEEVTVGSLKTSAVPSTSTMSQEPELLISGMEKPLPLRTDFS
Description: In this experiment, the capability of the compound and the specific ligand (d2-STING-ligand) in a Human STING binding kit from Cisbio for competitively binding to the 6×His-hSTING protein was detected using the Human STING binding kit (HTRF method), so as to evaluate the binding affinity between the compound to be tested and the hSTING protein.
The compound was gradiently diluted with a dilution buffer in the Human STING binding kit (the diluent buffer reagent) to obtain a 4× working concentration diluted solution. […] The 6×His-hSTING protein (50× in the mother liquor) was diluted to 1× with the detection buffer in the Human STING binding kit (the detection buffer reagent). 5 μl of the diluted solution was added into the corresponding wells of a 384-well plate, and the well with no protein and no compound was set as a negative control well (min), while the well with the protein and no compound was set as a positive control well (max). The d2-STING-ligand and Tb^3+-anti-6×His-antibody (both 50× in the mother liquor) were diluted to 1× with the detection buffer in the Human STING binding kit (the detection buffer reagent), and mixed uniformly at a ratio of 1:1. 10 μl of the mixed solution was added to the corresponding wells of a 384-well plate. The plate was sealed and incubated at room temperature (25° C.) for 3 h. A BMG microplate reader was used to read HTRF, and the ratio was calculated according to the following formula: Ratio=signal665nm/signal620nm×10000. […] IC50 was calculated through log(inhibitor) vs. response—Variable slope fitting by the Graphpad Prism software.

CCOC(=O)CCC(=O)c1cc2cc(OC)c(OCCCOc3cc4sc(C(=O)N(C)CCC(=O)OCC)cc4cc3OC)cc2s1 [Compound 1, ethyl 4-(6-(3-((2-((3-ethoxy-3-oxopropyl)(methyl)carbamoyl)-5-methoxybenzo[b]thiophen-6-yl)oxy)propoxy)-5-methoxybenzo[b]thiophen-2-yl)-4-oxobutyrate]
EC50 ([1]; Homo sapiens): 0.00057 µM | Emax (OD620nm) [1]: 1.54 OD620nm | agonistic effect on the STING-mediated Interferon (IFN) signal pathway [1]: strong agonistic effects | agonistic effect on the phosphorylation levels of STING, TBK1 and IRF3 [2]: strong agonistic effects

CCOC(=O)CCC(=O)c1cc2cc(OC)c(OCCCOc3cc4cc(C(=O)N(C)CCC(=O)OCC)sc4cc3OC)cc2s1 [Compound 3]
EC50 [1]: 0.00358 µM | Emax (OD620nm) [1]: 1.92 OD620nm | agonistic effect on the STING-mediated Interferon (IFN) signal pathway [1]: strong agonistic effects | agonistic effect on the phosphorylation levels of STING, TBK1 and IRF3 [2]: strong agonistic effects

Nc1ncnc2c1ncn2[C@@H]1O[C@@H]2COP(=O)([S-])O[C@@H]3[C@H](O)[C@@H](COP([O-])(=S)O[C@H]2[C@H]1O)O[C@H]3n1cnc2c(N)ncnc21.[Na+].[Na+] (stereo partly shown) [Control Compound 1, ADU-S100, reference compound]
EC50 [1]: 3.88 µM | Emax (OD620nm) [1]: 2.03 OD620nm | EC50 [3]: 14 µM | Emax [3]: 1476.6 pg/mL | Emax [4]: 1248.94 pg/mL | EC50 [4]: 2.74 µM

CCOC(=O)CCC(=O)c1cc2cc(OCCCOc3cc4sc(C(=O)N(C)CCC(=O)OCC)cc4cc3OC)c(OC)cc2s1 [Compound 5, ethyl 4-(5-(3-((2-((3-ethoxy-3-oxopropyl)(methyl)carbamoyl)-5-methoxybenzo[b]thiophen-6-yl)oxy)propoxy)-6-methoxybenzo[b]thiophen-2-yl)-4-oxobutyrate]
EC50 ([1]; Homo sapiens): 0.0014 µM | Emax (OD620nm) [1]: 1.94 OD620nm | agonistic effect on the STING-mediated Interferon (IFN) signal pathway [1]: strong agonistic effects

COc1cc2cc(C(=O)CCC(=O)O)sc2cc1OC [Control Compound 2, reference compound]
EC50 ([1]; Homo sapiens): 4.95 µM | Emax (OD620nm) [1]: 1.49 OD620nm | EC50 [3]: 16.8 µM | Emax [3]: 1373.9 pg/mL | Emax [4]: 1106.15 pg/mL | EC50 [4]: 24.6 µM | Ki ([5]; calculated as Ki=1/2*IC50 per kit instructions): 1.89 µM | IC50 ([5]; competition with d2-STING-ligand for 6×His-hSTING, HTRF, 3 h at 25° C.): 3.78 µM

CCOC(=O)CCC(=O)c1cc2cc(OCCCOc3cc4cc(C(=O)N(C)CCCOC)sc4cc3OC)c(OC)cc2s1 [Compound 23, ethyl 4-(6-methoxy-5-(3-((6-methoxy-2-((3-methoxypropyl)(methyl)carbamoyl)benzo[b]thiophen-5-yl)oxy)propoxy)benzo[b]thiophen-2-yl)-4-oxobutyrate]
EC50 ([1]; Homo sapiens): 0.974 µM | Emax (OD620nm) [1]: 1.74 OD620nm | agonistic effect on the STING-mediated Interferon (IFN) signal pathway [1]: strong agonistic effects
